Blank lines part the entries; values can stand above or below the compound they belong to. Active and inactive are the calls of the source. No cut-off for these calls is given here.
Assays:
[1] = system: MDA-MB-231; assay: Cytotoxicity against JMS-053-pretreated human MDA-MB-231 cells at 20 to 60 uM measured after 72 hrs by CellTiter-Glo assay; assay type: functional, cell-based; conditions: dose 20-60 µM
[2] = system: MDA-MB-231; assay: cells; conditions: Homo sapiens, MDA-MB-231, 72 h
[3] = system: MDA-MB-231; assay: Induction of ER stress in human MDA-MB-231 cells assessed as increase in DDIT3 mRNA expression at 2 mM measured after 2 hrs by qPCR method; assay type: functional, cell-based
[4] = system: MDA-MB-231; assay: Induction of ER stress in human MDA-MB-231 cells assessed as increase in HSPA5A mRNA expression at 2 mM measured after 2 hrs by qPCR method; assay type: functional, cell-based
[5] = system: MDA-MB-231; assay: Induction of ER stress in human MDA-MB-231 cells assessed as increase in sXbp1 mRNA expression at 2 mM measured after 2 hrs by qPCR method; assay type: functional, cell-based
[6] = system: MDA-MB-231; assay: Induction of ER stress in human MDA-MB-231 cells assessed as increase in DDIT3 mRNA expression at 2XEC50 measured after 6 hrs by qPCR method; assay type: functional, cell-based
[7] = system: MDA-MB-231; assay: Induction of ER stress in human MDA-MB-231 cells assessed as increase in sXbp1 mRNA expression at 2XEC50 measured after 6 hrs by qPCR method; assay type: functional, cell-based
[8] = molecular target: T1, M-phase inducer phosphatase 2 (Homo sapiens) (UniProt P30305); assay: Inhibition of CDC25B (unknown origin) at 1 uM
T1 sequence (whole entry): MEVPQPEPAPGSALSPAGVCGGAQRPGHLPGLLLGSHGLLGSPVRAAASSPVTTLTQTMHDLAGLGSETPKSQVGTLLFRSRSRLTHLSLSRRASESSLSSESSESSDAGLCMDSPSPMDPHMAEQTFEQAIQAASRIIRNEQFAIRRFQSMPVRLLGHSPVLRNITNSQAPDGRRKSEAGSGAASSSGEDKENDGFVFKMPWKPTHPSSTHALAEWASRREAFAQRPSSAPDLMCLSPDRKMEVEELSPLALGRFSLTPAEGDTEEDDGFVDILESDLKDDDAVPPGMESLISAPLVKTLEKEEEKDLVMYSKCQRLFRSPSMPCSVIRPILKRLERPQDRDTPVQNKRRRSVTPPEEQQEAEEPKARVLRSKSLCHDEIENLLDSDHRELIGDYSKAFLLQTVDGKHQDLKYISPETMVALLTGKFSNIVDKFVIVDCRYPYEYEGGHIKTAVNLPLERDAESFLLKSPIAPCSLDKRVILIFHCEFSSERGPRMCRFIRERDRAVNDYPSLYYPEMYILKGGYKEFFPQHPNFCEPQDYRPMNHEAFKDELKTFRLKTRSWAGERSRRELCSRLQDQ

[9] = molecular target: T2, Tyrosine-protein phosphatase non-receptor type 1 (Homo sapiens) (UniProt P18031); assay: Inhibition of PTP1B (unknown origin) at 1 uM
T2 sequence (whole entry): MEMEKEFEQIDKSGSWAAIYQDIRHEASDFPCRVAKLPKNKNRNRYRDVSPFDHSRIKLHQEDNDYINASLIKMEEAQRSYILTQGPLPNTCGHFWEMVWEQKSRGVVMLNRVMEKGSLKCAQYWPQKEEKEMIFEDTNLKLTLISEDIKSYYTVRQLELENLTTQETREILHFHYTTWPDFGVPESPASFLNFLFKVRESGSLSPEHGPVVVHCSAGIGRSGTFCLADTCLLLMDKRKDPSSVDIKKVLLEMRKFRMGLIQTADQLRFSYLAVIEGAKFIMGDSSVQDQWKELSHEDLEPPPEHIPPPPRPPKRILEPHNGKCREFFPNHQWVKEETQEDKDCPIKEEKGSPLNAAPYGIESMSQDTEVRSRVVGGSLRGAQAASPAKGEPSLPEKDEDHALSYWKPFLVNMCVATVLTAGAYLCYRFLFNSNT

[10] = molecular target: Dual specificity protein phosphatase 3 (Homo sapiens) (UniProt P51452); assay: Inhibition of DUSP3 (unknown origin) at 1 uM
[11] = system: MDA-MB-231; assay: Induction of ER stress in human MDA-MB-231 cells assessed as increase in HSPA5A mRNA expression at 2XEC50 measured after 6 hrs by qPCR method; assay type: functional, cell-based

Dual specificity protein phosphatase 3 (Homo sapiens), sequence (P51452 whole entry, looked up): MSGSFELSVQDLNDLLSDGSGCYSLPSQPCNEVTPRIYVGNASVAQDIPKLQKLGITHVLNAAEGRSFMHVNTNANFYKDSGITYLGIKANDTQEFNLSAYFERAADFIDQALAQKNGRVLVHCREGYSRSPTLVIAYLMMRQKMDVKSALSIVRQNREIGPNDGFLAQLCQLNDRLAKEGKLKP

Compound: O=C(CC12CC3CC(CC(C3)C1)C2)NCCCCO
Activity [1]: inactive
EC50 [2]: > 50 µM

Compound: OC(CS)C(O)CS (stereo unspecified)
Activity [3]: Active
Activity [4]: Active
Activity [5]: Active

inhibition [8]: < 11%
inhibition [9]: < 11%
inhibition [10]: < 11%
Compound: N=C1C(=O)NC(=O)c2cc(-c3ccc(OCCCCNC(=O)CC45CC6CC(CC(C6)C4)C5)cc3)sc21
Activity [6]: Active
Activity [7]: Active
Activity [11]: Active

From ChEMBL document CHEMBL4819145, “Synthesis and evaluation of bifunctional PTP4A3 phosphatase inhibitors activating the ER stress pathway” (Bioorg Med Chem Lett, 2021)
